Numbered stars: 1 amine (or outer) side, 2 acyl side, 3 side chain; on linkers, the order of the positions; unused ones are H or OH. Bridge positions count the residues as written; N and C are the ends. Square brackets hold non-standard residues; d marks the D form. Peptide text beside a SMILES is read from it. X1 = CC(=O)NC(C(=O)OC(C(C)C)C(N[*:1])C(=O)[*:2])C(O)C(C)C; PhLac = O=C(O)[CH](O)Cc1ccccc1; NMeT = CN[CH](C(=O)O)[CH](C)O; NMeA = CN[CH](C)C(=O)O; NMeDha = C=C(NC)C(=O)O
Assays:
α2A ADR = biological target: T1, α2A ADR (Homo sapiens, UniProt P08913); assay: DMR in α2A-HEK293 (transient) cells; format: cell-based
T1 construct: DYK (FLAG, DYKDDDDK) (N); host or cells: HEK293 (transient, Lipofectamine 3000)
T1 sequence (P08913 1-465): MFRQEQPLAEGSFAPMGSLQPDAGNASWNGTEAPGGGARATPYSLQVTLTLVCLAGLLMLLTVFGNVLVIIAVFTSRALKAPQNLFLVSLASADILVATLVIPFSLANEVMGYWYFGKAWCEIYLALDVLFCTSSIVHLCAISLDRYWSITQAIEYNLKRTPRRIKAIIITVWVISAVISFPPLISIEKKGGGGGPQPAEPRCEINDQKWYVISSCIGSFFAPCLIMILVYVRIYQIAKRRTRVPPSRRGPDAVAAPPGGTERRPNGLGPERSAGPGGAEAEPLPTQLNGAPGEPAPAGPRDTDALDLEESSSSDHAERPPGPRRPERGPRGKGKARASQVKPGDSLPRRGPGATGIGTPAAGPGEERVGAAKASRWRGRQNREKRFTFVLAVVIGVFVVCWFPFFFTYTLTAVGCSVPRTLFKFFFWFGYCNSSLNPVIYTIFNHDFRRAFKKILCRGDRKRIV
Method: The cells were grown in DMEM (100 μL) media supplemented with FBS (10%), penicillin (100 U/mL) and streptomycin (100 μg/mL) in a humidified atmosphere at 37° C. in 5% CO2 for 1 day before proceeding for the DMR experiments. For gain of function studies of α2A ADR, parental HEK293 cells were transfected with pcDNA3.1(+)-N-DYK empty vector or with pcDNA3.1(+)-ADRA2A-N-DYK clone (clone id: OHu19050C-GenScript) using Lipofactamine 3000 Transfection kit-Invitrogen (Cat. L3000008). DMR studies were performed on transiently transfected cells after 2 days post transfection. Prior to run the DMR experiment, cells were washed with 1×HBSS buffer with HEPES (20 mM, pH 7.4) and allowed to temperature equilibrate for 1 h at room temperature in 100 μL of the same buffer. Basal DMR response were graphed for around 15 min to obtain a baseline read that defines the zero level and also ensures the signal is stable.

α2B ADR = biological target: T2, α2B ADR (Homo sapiens, UniProt P18089); assay: DMR in α2B-HEK293 (stable) cells; format: cell-based
T2 construct: expressed in transfected cells
T2 sequence (P18089 1-450): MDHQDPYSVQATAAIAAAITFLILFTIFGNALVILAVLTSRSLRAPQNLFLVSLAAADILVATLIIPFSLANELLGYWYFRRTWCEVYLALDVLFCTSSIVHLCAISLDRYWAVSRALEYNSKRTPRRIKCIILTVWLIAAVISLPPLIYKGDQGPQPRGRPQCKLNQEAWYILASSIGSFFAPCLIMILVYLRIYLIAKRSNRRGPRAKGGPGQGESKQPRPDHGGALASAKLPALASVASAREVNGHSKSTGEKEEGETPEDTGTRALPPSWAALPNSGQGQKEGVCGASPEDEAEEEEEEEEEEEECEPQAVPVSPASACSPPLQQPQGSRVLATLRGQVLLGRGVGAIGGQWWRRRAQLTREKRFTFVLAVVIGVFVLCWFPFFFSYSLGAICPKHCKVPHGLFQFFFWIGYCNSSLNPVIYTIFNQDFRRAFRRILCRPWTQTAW

MEG01 cells [1] = assay: Dynamic mass redistribution (DMR) in MEG01 cells; format: cell-based, human; details: for DMR response to ATP after ADR inhibitors: ATP 50 μM; for PAGln-induced DMR response after ADR inhibitors: 30 min
Method: (§1) Before proceeding for the experiments, cells were subjected to overnight incubation in reduced serum media opti-MEM. […] The cells were briefly centrifuged at room temperature at low speed (100 g for 10-15 sec) to allow settling down the cells at the bottom of the plate. After that, cells were allowed to temperature equilibrate for 1 h at room temperature prior to run DMR measurement. Firstly, basal DMR responses were graphed for around 15 min to obtain a baseline read that defines the zero level and also ensures the signal is stable. […] DMR response signal was recorded for 60-90 minutes post compound of interest addition.

MEG01 cells [2] = assay: cAMP assay in MEG01 cells; format: cell-based, human
Method: Real-time (RT) PCR in MEG01 cells: Total RNA was isolated from MEG01 cells following TRIZOL RNA isolation protocol post 40 h of siRNA transfection. […] Real time (RT) PCR was carried out following TaqMan Gene Expression Assays protocol using RT primers and probes of ADRA2A (assay Id Hs01099503_s1), ADRA2B (assay Id Hs00265081 s1) and ADRB2 (assay Id Hs00240532_s1) from ThermoFisher Scientific. cAMP assay in MEG01, Platelets and HEK293 cells: Intracellular cAMP levels were measured using CatchPoint Cyclic-AMP Fluorescent Assay Kit from molecular devices (Cat. R8089). Briefly, MEG01 cells were washed with 1×HBSS buffer with HEPES (20 mM; pH 7.4) and re-suspended in stimulation buffer (1×HBSS, HEPES (20 mM); pH 7.4, IBMX (0.5 mM), Rolipram (0.1 mM) and BSA (0.1%)). The cells were further seeded into 96 well cell culture plates with a density of ˜100 k cells per well in 100 μL stimulation buffer. Similarly, human washed platelets re-suspended very gently in stimulation buffer and seeded into a 96-well cell culture plates with ˜4-6 million platelets per well in 100 μL stimulation buffer. Both the MEG01 cells and platelets were kept thereafter at 37° C. incubator for 10 min before addition of the inhibitors or test compounds. Following incubation with stimulation buffer, 10 μL (10× concentration) of modulators/inhibitors (when necessary) were added and kept for 15 min at 37° C. […] The test compounds were made in buffer T (1×HBSS, HEPES (20 mM); pH 7.4, IBMX (0.5 mM) and Rolipram (0.1 mM)). The reaction was stopped by adding 50 μL of lysis buffer (provided in the kit CatchPoint Cyclic-AMP Fluorescent Assay Kit Cat. R8089-Molecular Devices), further added with IBMX (0.5 mM) and Rolipram (0.1 mM)) and agitated for 10 min in a plate shaker to facilitate cell lysis. Lysed cells are immediately proceeded to cAMP assay. For the quantification of cAMP, the lysed sample (40 μL), buffer control and cAMP calibrators were added in appropriate wells of a 96-well clear bottom, black wall cAMP assay plates (provided in the kit). Thereafter, reconstituted rabbit anti-cAMP antibody (40 μL) was added to all the wells and mix for 5 min on a plate shaker to ensure mixing. In the next step, reconstituted HRP-cAMP conjugate (40 μL) was added to every well, mixed properly and kept at room temperature for 2 h. The plate contents were aspirated thereafter and washed with wash buffer (300 μL (provided in the kit)) 4 times. Spotlight red substrate (provided in the kit) was added to each well minimizing the time between starting and finishing in dark. The plate was covered with aluminum foil and left at room temperature for at least 10 min before reading fluorescence intensity in a FlexStation 3 Multi-Mode Microplate Reader-Molecular devices. […] For cAMP assay in adherent cell lines, parental HEK293, and β2-HEK293 (stable) cells were seeded into 96-well cell culture microplates with approximately 50 k cells per well in DMEM (100 μL) media supplemented with FBS (10%), penicillin (100 U/mL) and streptomycin (100 μg/mL) in a humidified atmosphere at 37° C. in 5% CO2. Cells were grown for 24 h before proceeding for cAMP experiment following similar method as described for MEG01 cells. Intracellular Ca^2+ measurement: Intracellular Ca^2+ in MEG01, HEL92.1.7, parental HEK293, β2-HEK293 (stable) cells, empty vector (EV) transfected HEK293 cells, ADRA2A transfected HEK293 cells and in α2B-HEK293 stable cells was measured using FLIPR Calcium 5 Assay Kit-Molecular devices (Cat. R8186). […]

washed human platelets = assay: cAMP assay in washed human platelets; format: cell-based
Method: Real-time (RT) PCR in MEG01 cells: Total RNA was isolated from MEG01 cells following TRIZOL RNA isolation protocol post 40 h of siRNA transfection. […] Real time (RT) PCR was carried out following TaqMan Gene Expression Assays protocol using RT primers and probes of ADRA2A (assay Id Hs01099503_s1), ADRA2B (assay Id Hs00265081 s1) and ADRB2 (assay Id Hs00240532_s1) from ThermoFisher Scientific. cAMP assay in MEG01, Platelets and HEK293 cells: Intracellular cAMP levels were measured using CatchPoint Cyclic-AMP Fluorescent Assay Kit from molecular devices (Cat. R8089). Briefly, MEG01 cells were washed with 1×HBSS buffer with HEPES (20 mM; pH 7.4) and re-suspended in stimulation buffer (1×HBSS, HEPES (20 mM); pH 7.4, IBMX (0.5 mM), Rolipram (0.1 mM) and BSA (0.1%)). The cells were further seeded into 96 well cell culture plates with a density of ˜100 k cells per well in 100 μL stimulation buffer. Similarly, human washed platelets re-suspended very gently in stimulation buffer and seeded into a 96-well cell culture plates with ˜4-6 million platelets per well in 100 μL stimulation buffer. Both the MEG01 cells and platelets were kept thereafter at 37° C. incubator for 10 min before addition of the inhibitors or test compounds. Following incubation with stimulation buffer, 10 μL (10× concentration) of modulators/inhibitors (when necessary) were added and kept for 15 min at 37° C. […] For the quantification of cAMP, the lysed sample (40 μL), buffer control and cAMP calibrators were added in appropriate wells of a 96-well clear bottom, black wall cAMP assay plates (provided in the kit). […] The plate was covered with aluminum foil and left at room temperature for at least 10 min before reading fluorescence intensity in a FlexStation 3 Multi-Mode Microplate Reader-Molecular devices. […] Intracellular Ca^2+ measurement: Intracellular Ca^2+ in MEG01, HEL92.1.7, parental HEK293, β2-HEK293 (stable) cells, empty vector (EV) transfected HEK293 cells, ADRA2A transfected HEK293 cells and in α2B-HEK293 stable cells was measured using FLIPR Calcium 5 Assay Kit-Molecular devices (Cat. R8186). […]

[3] = tested on: human platelet rich plasma (PRP); assay: Platelet aggregometry in platelet rich plasma; format: cell-based; details: inhibitor 10 μM; PAGln 100 μM; ADP 2 μM
Method: ADP (up to 4 μM), TRAP6 (up to 10 μM) and collagen (up to 1.0 μg/mL) were used as indicated to initiate aggregation with constant stirring (600 rpm).

HEL92.1.7 cells = assay: Dynamic mass redistribution (DMR) in HEL92.1.7 cells; format: cell-based, human
Method: as §1

[4] = vs parental HEK293, PAGln 100 μM, B-HT933 50 μM

CCN1CCc2nc(N)oc2CC1 [B-HT933]
agonist-evoked DMR response (α2A ADR; [4]): elevated B-HT933-elicited DMR response | agonist-evoked DMR response (α2B ADR; [4]): elevated B-HT933-elicited DMR response

Cc1ccc(OCC(O)C(C)NC(C)C)c2c1CCC2 (stereo not drawn) [ICI118,551]
DMR response to ATP after ADR inhibitors (MEG01 cells [1]; inhibitor 10 μM): remained unchanged | DMR response of isoproterenol (ISO) after ADR inhibitors (MEG01 cells [1]; ISO 10 μM, inhibitor 10 μM): diminished | PAGln-induced DMR response after ADR inhibitors (MEG01 cells [1]; PAGln 100 μM, inhibitor 10 μM): substantially reduced | intracellular cAMP production after ISO treatment, with ADR inhibitors (MEG01 cells [2]): reduced | PAGln induced intracellular cAMP production after ADR inhibitors (MEG01 cells [2]; PAGln 100 μM, 5 min exposure, inhibitor 10 μM): inhibited PAGln (5 min exposure) induced intracellular cAMP production | intracellular cAMP production after ISO treatment, with ADR inhibitors (washed human platelets): reduced | PAGln induced intracellular cAMP production after ADR inhibitors (washed human platelets; PAGln 5 min exposure): inhibited PAGln (5 min exposure) induced intracellular cAMP production

COC1(C2=NCCN2)COc2ccccc2O1 (stereo not drawn) [RX821002]
PAGln induced hyperresponsiveness of platelet aggregation [3]: attenuated the PAGln induced hyperresponsiveness | DMR response to ATP after ADR inhibitors (MEG01 cells [1]; inhibitor 10 μM): remained unchanged | DMR response of B-HT933 after ADR inhibitor (MEG01 cells [1]; B-HT933 50 μM, inhibitor 10 μM): appropriately inhibited | PAGln-induced DMR response after ADR inhibitors (MEG01 cells [1]; PAGln 100 μM, inhibitor 10 μM): substantially reduced | B-HT933-elicited DMR response after ADR inhibitor (α2A ADR): attenuated by RX821002 | PAGln-induced DMR response after ADR inhibitor (α2A ADR; inhibitor 10 μM, 30 min): reversed | B-HT933-elicited DMR response after ADR inhibitor (α2B ADR): attenuated by RX821002 | PAGln-induced DMR response after ADR inhibitor (α2B ADR; inhibitor 10 μM, 30 min): reversed

CN=c1nc(-c2ccccc2)n(-c2ccccc2)s1 [SCH-202676]
PAGln-induced DMR response after G-protein modulators (MEG01 cells [1]; PAGln 100 μM, PTX 100 ng/mL, CTX 1 μg/mL, YM-254890 0.5 μM, SCH-202676 1 μM): significantly reduced | PAGln-evoked cAMP production after GPCR modulators (MEG01 cells [2]; pretreatment with modulator): inhibited PAGln-evoked cAMP production | PAGln-evoked cAMP production after GPCR modulators (washed human platelets; pretreatment with modulator): inhibited PAGln-evoked cAMP production

C=C1C(=O)NC(C)C(=O)N(C)C(C)C(=O)NC(C(OC(=O)C(NC(C)=O)C(O)C(C)C)C(C)C)C(=O)N(C)C(C(C)OC)C(=O)OC(C)C(NC(C)=O)C(=O)OC(Cc2ccccc2)C(=O)N1C (stereo not drawn) [YM-254890] (Ac-T[PhLac][NMeDha]A[NMeA][X1][NMeT](Me); ester 1-C; configuration not given here)
PAGln induced DMR response after G-protein modulators (HEL92.1.7 cells): significant reduction in PAGln induced DMR response

From patent US20230091848A1, “DISEASE DETECTION AND TREATMENT BASED ON PHENYLACETYL GLUTAMINE LEVELS” (The Cleveland Clinic Foundation, priority 2020, published 2023)
